Data: US12227509B2, “Dihydropyrazolopyrazinone derivative having MGAT2 inhibitory activity” (Shionogi & Co., Ltd., priority 2019, dated 2025)

Target: recombinant human MGAT2 (Homo sapiens (Human), UniProt Q3SYC2)
Assay: Measurement of human MGAT2 inhibitory activity
Assay type: biochemical
Conditions: concentration exhibiting 50% enzyme inhibition, recombinant human MGAT2, 2-Oleoylglycerol/Oleoyl-CoA
Procedure: A full-length human MGAT2 gene to which a Flag-tag had been added at the N-terminal was inserted into pFastBac (from Invitrogen). A recombinant baculovirus was produced in accordance with the protocol for a Bac-to-Bac baculovirus expression system (produced by Invitrogen), and Sf-9 cells were infected therewith. The cells were collected and sonicated, and then the membrane fraction was collected through centrifugation. Western blotting analysis with an anti-Flag antibody was performed for the membrane fraction to confirm expression, and the membrane fraction was used as a recombinant human MGAT2 enzyme solution.
Solutions of the compounds of the present invention in DMSO were each aliquoted into 0.2-μL portions in a 384-well polystyrene microplate produced by Corning Incorporated, and 5 μL of an enzyme solution prepared with an assay buffer (100 mmol/L phosphate buffer (pH 7.4) containing 2 mmol/L DTT) and 5 μL of a substrate solution (100 mmol/L phosphate buffer (pH 7.4), 30 μmol/L 2-Oleoylglycerol, 10 μmol/L Oleoyl-CoA) were added thereto, and the resultant was stirred and centrifuged, and incubated in a moist chamber at room temperature for 1 hour. After enzymatic reaction, 50 μL of a quenching solution (containing 0.2 μmol/L Diolein-d5, 0.4% formic acid, and 50% isopropanol) containing Internal Standard (IS) was added to terminate the reaction, and the resultant was sealed in a plate produced by Shimadzu GLC Ltd., and then stirred and centrifuged, and measurement was performed by using an electrospray ionization method with a RapidFire360 and Agilent 6550 Q-TOF mass spectrometer. Diolein as a reaction product (P) of 2-Oleoylglycerol as the substrate and an ammonium adduct ion of the IS were detected, and the peak intensity ratio, P/IS, was calculated from the peak heights to evaluate the inhibitory activity. Inhibitory activities with/without addition of enzyme were defined as Control (+)/Control (−), respectively, and the respective % inhibitions were defined as 0% inhibition and 100% inhibition. The inhibitory activity was calculated from formula below with TIBCO Spotfire (produced by TIBCO Software Inc.)
Inhibitory activity (%)=[1−{Sample−Control (−)}/{Control (+)−Control (−)}]*100 where Sample indicates a peak intensity ratio: P/IS, when the compound of the present invention was added.

Chain of recombinant human MGAT2 (Q3SYC2 whole entry): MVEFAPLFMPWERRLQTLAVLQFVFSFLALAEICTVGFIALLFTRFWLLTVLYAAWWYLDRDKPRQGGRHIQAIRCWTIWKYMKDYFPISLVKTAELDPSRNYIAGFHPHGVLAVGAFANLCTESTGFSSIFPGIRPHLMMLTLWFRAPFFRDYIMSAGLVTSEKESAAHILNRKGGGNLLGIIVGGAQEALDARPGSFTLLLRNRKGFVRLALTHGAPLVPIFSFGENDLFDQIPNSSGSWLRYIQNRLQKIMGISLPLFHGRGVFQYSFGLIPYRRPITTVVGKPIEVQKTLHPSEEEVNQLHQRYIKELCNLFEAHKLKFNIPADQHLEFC

IC50 [nM] | IC50 (listed as 1-63) [nM] | Compound
2.8 | – | CS(=O)(=O)CC(=O)Nc1c(-c2ccc(F)cc2)nn2c1C(=O)N[C@@]1(CCOc3cc(F)cc(F)c31)C2 [Compound I-125]
1.94 | – | Cc1ccc(-c2nn3c(c2NC(=O)CS(C)(=O)=O)C(=O)N[C@]2(CCc4cc(OCC(F)(F)F)ccc42)C3)cc1 [Compound I-76]
11.3 | – | Cc1ccc(-c2nn3c(c2NC(=O)c2ccno2)C(=O)N[C@@]2(CCc4cc(OCC(F)(F)F)ccc42)C3)nc1 [Compound I-42]
2.23 | – | CS(=O)(=O)CC(=O)Nc1c(-c2ccc(C#N)cc2)nn2c1C(=O)N[C@@]1(CCc3cc(OCC(F)(F)F)ccc31)C2 [Compound I-31]
2.57 | – | CS(=O)(=O)CC(=O)Nc1c(CCC2CC2)nn2c1C(=O)N[C@@]1(CCOc3cc(F)cc(F)c31)C2 [Compound I-120]
10.6 | – | CS(=O)(=O)CC(=O)Nc1c(-c2ccc(F)c(F)c2)nn2c1C(=O)N[C@]1(CCc3cc(F)cc(F)c31)C2 [Compound I-148]
2.88 | – | CS(=O)(=O)CC(=O)Nc1c(-c2ccc(C3CC3)cc2)nn2c1C(=O)N[C@]1(CCc3cc(OCC(F)(F)F)ccc31)C2 [Compound I-85]
14 | – | CS(=O)(=O)CC(=O)Nc1c(-c2ccccc2)nn2c1C(=O)N[C@@]1(CCc3cc(OCC(F)(F)F)ccc31)C2 [Compound I-1]
9.33 | – | CS(=O)(=O)CC(=O)Nc1c(-c2ccc(C(F)F)cc2)nn2c1C(=O)N[C@@]1(CCc3cc(F)cc(F)c31)C2 [Compound I-131]
1.2 | – | CS(=O)(=O)CC(=O)Nc1c(-c2ccc(F)cc2)nn2c1C(=O)N[C@@]1(CCc3cc(OCC(F)(F)F)ccc31)C2 [Compound I-23]
2.53 | – | CS(=O)(=O)CC(=O)Nc1c(-c2cc(F)cc(F)c2)nn2c1C(=O)N[C@@]1(CCc3cc(OCC(F)(F)F)ccc31)C2 [Compound I-50]
4.83 | – | CCOc1ccc2c(c1)CC[C@]21Cn2nc(-c3ccc(F)c(F)c3)c(NC(=O)CS(C)(=O)=O)c2C(=O)N1 [Compound I-117]
1 | – | Cc1ccc(-c2nn3c(c2NC(=O)CS(C)(=O)=O)C(=O)NC2(CCc4cc(OCc5ccccc5)ccc42)C3)nc1 (stereo not shown) [Compound I-55]
1.08 | – | CNS(=O)(=O)CC(=O)Nc1c(-c2ccc(C#N)cn2)nn2c1C(=O)N[C@]1(CCc3cc(OCC(F)(F)F)ccc31)C2 [Compound I-11]
3.55 | – | CS(=O)(=O)CC(=O)Nc1c(-c2ccc(Cl)c(F)c2)nn2c1C(=O)N[C@@]1(CCc3cc(F)cc(F)c31)C2 [Compound I-138]
2.15 | – | CS(=O)(=O)CC(=O)Nc1c(-c2cc(F)cc(F)c2)nn2c1C(=O)N[C@]1(CCc3cc(OCC(F)(F)F)ccc31)C2 [Compound I-98]
3.27 | – | Cc1cccc(-c2nn3c(c2NC(=O)CS(C)(=O)=O)C(=O)N[C@@]2(CCc4cc(OCC(F)(F)F)ccc42)C3)c1 [Compound I-21]
1.14 | – | CS(=O)(=O)CC(=O)Nc1c(-c2ccc(C3CC3)cn2)nn2c1C(=O)N[C@@]1(CCc3cc(OCC(F)(F)F)ccc31)C2 [Compound I-57]
88.3 | – | Cc1ccccc1-c1nn2c(c1NC(=O)CS(C)(=O)=O)C(=O)N[C@]1(CCc3cc(OCC(F)(F)F)ccc31)C2 [Compound I-78]
0.585 | – | CS(=O)(=O)CC(=O)Nc1c(-c2cc(F)c(F)c(F)c2)nn2c1C(=O)N[C@]1(CCc3cc(OCC(F)(F)F)ccc31)C2 [Compound I-92]
7.03 | – | CCOc1ccc2c(c1)CC[C@]21Cn2nc(CCC3CC3)c(NC(=O)CS(C)(=O)=O)c2C(=O)N1 [Compound I-103]
8.24 | – | CS(=O)(=O)CC(=O)Nc1c(-c2ccc(F)c(F)c2)nn2c1C(=O)N[C@]1(CCOc3cc(F)cc(F)c31)C2 [Compound I-152]
7.33 | – | Cc1ccc(-c2nn3c(c2NC(=O)C2CS(=O)(=O)C2)C(=O)N[C@]2(CCc4cc(OCC(F)(F)F)ccc42)C3)nc1 [Compound I-40]
11.3 | – | CS(=O)(=O)CC(=O)Nc1c(-c2ccc(F)cn2)nn2c1C(=O)N[C@]1(CCOc3cc(F)cc(F)c31)C2 [Compound I-150]
14.5 | – | CCCCCc1nn2c(c1NC(=O)CS(C)(=O)=O)C(=O)N[C@]1(CCc3cc(OCC)ccc31)C2 [Compound I-115]
1.18 | – | CS(=O)(=O)CC(=O)Nc1c(CCC2CC2)nn2c1C(=O)N[C@@]1(CCOc3cc(OCC(F)(F)F)ccc31)C2 [Compound I-109]

IC50 [nM] | IC50 (listed as 1-63) [nM] | Compound
– | 1.24 | CS(=O)(=O)CC(=O)Nc1c(CCCC(F)(F)F)nn2c1C(=O)NC1(CCc3cc(OCC(F)(F)F)ccc31)C2 (single isomer, unassigned) [Compound I-63]
2.81 | – | Cc1ccc(-c2nn3c(c2NC(=O)CS(C)(=O)=O)C(=O)N[C@]2(CCc4cc(OCC(F)(F)F)ccc42)C3)nc1 [Compound I-5]
2.51 | – | CS(=O)(=O)CC(=O)Nc1c(-c2ccc(OC(F)F)cc2)nn2c1C(=O)N[C@]1(CCc3cc(OCC(F)(F)F)ccc31)C2 [Compound I-84]
1.17 | – | Cc1cc(-c2nn3c(c2NC(=O)CS(C)(=O)=O)C(=O)N[C@]2(CCc4cc(OCC(F)(F)F)ccc42)C3)ccc1F [Compound I-88]
0.935 | – | Cc1ccc(-c2nn3c(c2NC(=O)CS(C)(=O)=O)C(=O)NC2(CN(c4ccc(C(F)(F)F)cc4)C2)C3)nc1 [Compound I-65]
5.19 | – | CS(=O)(=O)CC(=O)Nc1c(-c2ccccn2)nn2c1C(=O)N[C@@]1(CCc3cc(OCC(F)(F)F)ccc31)C2 [Compound I-19]
0.48 | – | CS(=O)(=O)CC(=O)Nc1c(-c2ccc(Cl)cn2)nn2c1C(=O)N[C@]1(CCc3cc(OCC(F)(F)F)ccc31)C2 [Compound I-59]
9.7 | – | CS(=O)(=O)CC(=O)Nc1c(-c2ccc(F)cn2)nn2c1C(=O)N[C@]1(CCc3cc(F)cc(F)c31)C2 [Compound I-146]
7.61 | – | CCOc1ccc2c(c1)CC[C@@]21Cn2nc(CCC3CC3)c(NC(=O)CS(C)(=O)=O)c2C(=O)N1 [Compound I-111]
1.58 | – | CCCCCc1nn2c(c1NC(=O)CS(C)(=O)=O)C(=O)N[C@@]1(CCOc3cc(OCC(F)(F)F)ccc31)C2 [Compound I-113]
20.1 | – | COc1ccc(-c2nn3c(c2NC(=O)CS(C)(=O)=O)C(=O)N[C@@]2(CCc4cc(OCC(F)(F)F)ccc42)C3)cc1 [Compound I-26]
1.44 | – | CNS(=O)(=O)CC(=O)Nc1c(-c2ccc(C#N)cn2)nn2c1C(=O)N[C@@]1(CCc3cc(OCC(F)(F)F)ccc31)C2 [Compound I-16]
3.76 | – | CCS(=O)(=O)CC(=O)Nc1c(-c2ccc(F)cn2)nn2c1C(=O)N[C@@]1(CCOc3cc(F)cc(F)c31)C2 [Compound I-118]
15.2 | – | COc1ccc(-c2nn3c(c2NC(=O)CS(C)(=O)=O)C(=O)N[C@@]2(CCc4cc(OCC(F)(F)F)ccc42)C3)cc1F [Compound I-52]
2.54 | – | Cc1cccc(-c2nn3c(c2NC(=O)CS(C)(=O)=O)C(=O)N[C@]2(CCc4cc(OCC(F)(F)F)ccc42)C3)c1 [Compound I-77]
23.4 | – | CS(=O)(=O)CC(=O)Nc1c(CCC2CC2)nn2c1C(=O)N[C@]1(CCc3cc(F)cc(F)c31)C2 [Compound I-149]
91.9 | – | Cc1ccc(-c2nn3c(c2NC(=O)CS(=O)(=O)N(C)C)C(=O)N[C@@]2(CCc4cc(OCC(F)(F)F)ccc42)C3)nc1 [Compound I-128]
6.6 | – | CS(=O)(=O)CC(=O)Nc1c(-c2ccccc2)nn2c1C(=O)N[C@]1(CCc3cc(OCC(F)(F)F)ccc31)C2 [Compound I-2]
21.4 | – | CCS(=O)(=O)CC(=O)Nc1c(-c2ccc(C)cn2)nn2c1C(=O)N[C@@]1(CCc3cc(F)cc(F)c31)C2 [Compound I-122]
3.43 | – | CS(=N)(=O)CC(=O)Nc1c(-c2ccc(F)c(F)c2)nn2c1C(=O)N[C@@]1(CCc3cc(OCC(F)(F)F)ccc31)C2 (stereo partly shown) [Compound I-108]
5.31 | – | Cc1ccc(-c2nn3c(c2NC(=O)c2ccno2)C(=O)N[C@]2(CCc4cc(OCC(F)(F)F)ccc42)C3)nc1 [Compound I-38]
93.5 | – | Cc1ccccc1-c1nn2c(c1NC(=O)CS(C)(=O)=O)C(=O)N[C@@]1(CCc3cc(OCC(F)(F)F)ccc31)C2 [Compound I-22]
131 | – | CS(=O)(=O)CC(=O)Nc1c(-c2ccc(OC3CC3)cc2)nn2c1C(=O)N[C@]1(CCc3cc(OCC(F)(F)F)ccc31)C2 [Compound I-86]
1.1 | – | Cc1ccc(-c2nn3c(c2NC(=O)CS(C)(=O)=O)C(=O)N[C@]2(CCc4cc(OCC(F)(F)F)ccc42)C3)cc1F [Compound I-90]
1.93 | – | CS(=O)(=O)CC(=O)Nc1c(-c2ccc(C#N)cn2)nn2c1C(=O)N[C@]1(CCc3cc(OCC(F)(F)F)ccc31)C2 [Compound I-4]
193 | – | CS(=O)(=O)CC(=O)Nc1c(-c2ccc(OC3CC3)cc2)nn2c1C(=O)N[C@@]1(CCc3cc(OCC(F)(F)F)ccc31)C2 [Compound I-30]
